Results on ten cell lines are retold here after the supplement of paper PMC10307832.

What all share (test): relative viability (nuclei count vs DMSO), 5 days (fraction); higher = more cells survive
Compound in the test “Pemetrexed + Lapatinib”: Nc1nc2[nH]cc(CCc3ccc(C(=O)N[C@@H](CCC(=O)O)C(=O)O)cc3)c2c(=O)[nH]1 [Pemetrexed] + CS(=O)(=O)CCNCc1ccc(-c2ccc3ncnc(Nc4ccc(OCc5cccc(F)c5)c(Cl)c4)c3c2)o1 [Lapatinib] (partner 2 µM)
An outline of the steps:
(§1)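 For relative viability, nuclei counts in treated wells were divided by those in vehicle wells. Lung cancer cell lines had been pin-tool dosed in 1536-well plates the day after seeding and cultured for 5 days, then fixed and stained in one step (final 0.05% Triton X-100, 1% formaldehyde, 1 ug/ml Hoechst) and imaged at 4×. Doses were one drug alone or a fixed anchor-drug dose plus five library-drug doses (not always all listed) in √10 steps, and values are duplicate-plate medians.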

Compound in the test “Idelalisib + Decitabine”: CC[C@H](Nc1ncnc2[nH]cnc12)c1nc2cccc(F)c2c(=O)n1-c1ccccc1 [Idelalisib] + Nc1ncn([C@H]2C[C@H](O)[C@@H](CO)O2)c(=O)n1 [Decitabine] (partner 2 µM)
Put shortly:
as §1

Compound in the test “Pemetrexed + Pictilisib”: Nc1nc2[nH]cc(CCc3ccc(C(=O)N[C@@H](CCC(=O)O)C(=O)O)cc3)c2c(=O)[nH]1 [Pemetrexed] + CS(=O)(=O)N1CCN(Cc2cc3nc(-c4cccc5[nH]ncc45)nc(N4CCOCC4)c3s2)CC1 [Pictilisib] (partner 1 µM)
An outline of the steps:
as §1

Compound in the test “Idelalisib + Foretinib”: CC[C@H](Nc1ncnc2[nH]cnc12)c1nc2cccc(F)c2c(=O)n1-c1ccccc1 [Idelalisib] + COc1cc2c(Oc3ccc(NC(=O)C4(C(=O)Nc5ccc(F)cc5)CC4)cc3F)ccnc2cc1OCCCN1CCOCC1 [Foretinib] (partner 0.25 µM)
An outline of the steps:
as §1

Take NCI-H661: the relative viability amounted to 0.731 with Pemetrexed + Lapatinib (first compound 0.002 µM); 0.503 in the test with Pemetrexed + Lapatinib (first compound 0.006325 µM); 0.593 with Pemetrexed + Lapatinib (first compound 0.02 µM); 0.417 with Pemetrexed + Lapatinib (first compound 0.06325 µM); 0.586 with Pemetrexed + Lapatinib (first compound 0.2 µM); 0.616 with Idelalisib + Decitabine (first compound 0.04 µM). Besides, the relative viability worked out at 0.583 in the test with Idelalisib + Decitabine (first compound 0.1265 µM); 0.543 with Idelalisib + Decitabine (first compound 0.4 µM); 0.6 in the test with Idelalisib + Decitabine (first compound 1.265 µM); 0.542 with Idelalisib + Decitabine (first compound 4 µM); 0.487 in the test with Pemetrexed + Pictilisib (first compound 0.002 µM); 0.402 with Pemetrexed + Pictilisib (first compound 0.006325 µM). Moreover, the relative viability in the test with Pemetrexed + Pictilisib (first compound 0.02 µM) came out at 0.438; with Pemetrexed + Pictilisib (first compound 0.2 µM), 0.424; with Idelalisib + Foretinib (first compound 0.04 µM), 1.12; with Idelalisib + Foretinib (first compound 0.1265 µM), 1.06; in the test with Idelalisib + Foretinib (first compound 0.4 µM) it was 1.02; with Idelalisib + Foretinib (first compound 1.265 µM), 1.01. Also, the relative viability with Idelalisib + Foretinib (first compound 4 µM) stood at 1.02.

Turning to CAL-12T, the relative viability was found to be 0.549 with Pemetrexed + Lapatinib (first compound 0.002 µM); 0.678 in the test with Pemetrexed + Lapatinib (first compound 0.006325 µM); 0.615 with Pemetrexed + Lapatinib (first compound 0.02 µM); 0.774 with Pemetrexed + Lapatinib (first compound 0.06325 µM); 0.59 with Pemetrexed + Lapatinib (first compound 0.2 µM); 0.426 with Pemetrexed + Pictilisib (first compound 0.002 µM). In addition, the relative viability was 0.484 in the test with Pemetrexed + Pictilisib (first compound 0.006325 µM); 0.451 with Pemetrexed + Pictilisib (first compound 0.02 µM); 0.416 with Pemetrexed + Pictilisib (first compound 0.06325 µM); 0.389 with Pemetrexed + Pictilisib (first compound 0.2 µM); 1.27 in the test with Idelalisib + Foretinib (first compound 0.04 µM); 1.13 in the test with Idelalisib + Foretinib (first compound 0.1265 µM). The relative viability stood at 1.09 with Idelalisib + Foretinib (first compound 0.4 µM), 1.16 with Idelalisib + Foretinib (first compound 1.265 µM) and 1.39 with Idelalisib + Foretinib (first compound 4 µM).

For HARA, the relative viability was found to be 0.681 with Pemetrexed + Lapatinib (first compound 0.002 µM); 0.747 with Pemetrexed + Lapatinib (first compound 0.006325 µM); 1.01 with Pemetrexed + Lapatinib (first compound 0.02 µM); 0.674 in the test with Pemetrexed + Lapatinib (first compound 0.06325 µM); 0.365 with Pemetrexed + Lapatinib (first compound 0.2 µM); 0.642 with Idelalisib + Decitabine (first compound 0.04 µM). The relative viability is 0.62 with Idelalisib + Decitabine (first compound 0.1265 µM); 0.548 in the test with Idelalisib + Decitabine (first compound 1.265 µM); 0.586 with Idelalisib + Decitabine (first compound 4 µM); 0.465 in the test with Pemetrexed + Pictilisib (first compound 0.002 µM); 0.374 in the test with Pemetrexed + Pictilisib (first compound 0.006325 µM); 0.436 in the test with Pemetrexed + Pictilisib (first compound 0.02 µM). The relative viability with Pemetrexed + Pictilisib (first compound 0.06325 µM) was 0.235; in the test with Pemetrexed + Pictilisib (first compound 0.2 µM) it was 0.204; with Idelalisib + Foretinib (first compound 0.04 µM), 1.24; in the test with Idelalisib + Foretinib (first compound 0.1265 µM), 0.934; with Idelalisib + Foretinib (first compound 0.4 µM), 0.776; with Idelalisib + Foretinib (first compound 1.265 µM) it was 1.04. Moreover, the relative viability with Idelalisib + Foretinib (first compound 4 µM) stood at 0.746.

As to NCI-H596, the relative viability with Pemetrexed + Lapatinib (first compound 0.002 µM) came to 1.03; with Pemetrexed + Lapatinib (first compound 0.006325 µM), 1.09; in the test with Pemetrexed + Lapatinib (first compound 0.02 µM) it was 1.07; with Pemetrexed + Lapatinib (first compound 0.06325 µM), 0.82; in the test with Pemetrexed + Lapatinib (first compound 0.2 µM) it was 0.644; in the test with Idelalisib + Decitabine (first compound 0.04 µM), 0.994. The relative viability with Idelalisib + Decitabine (first compound 0.1265 µM) worked out at 0.962; in the test with Idelalisib + Decitabine (first compound 0.4 µM) it was 1.06; with Idelalisib + Decitabine (first compound 1.265 µM) it was 1.15; with Idelalisib + Decitabine (first compound 4 µM), 0.887; with Pemetrexed + Pictilisib (first compound 0.002 µM), 0.399; with Pemetrexed + Pictilisib (first compound 0.006325 µM) it was 0.348. Besides, the relative viability came to 0.436 with Pemetrexed + Pictilisib (first compound 0.02 µM); 0.348 with Pemetrexed + Pictilisib (first compound 0.06325 µM); 0.344 with Pemetrexed + Pictilisib (first compound 0.2 µM); 0.95 with Idelalisib + Foretinib (first compound 0.04 µM); 0.885 with Idelalisib + Foretinib (first compound 0.1265 µM); 0.671 with Idelalisib + Foretinib (first compound 0.4 µM). For the same cell line, the relative viability is 0.909 with Idelalisib + Foretinib (first compound 1.265 µM) and 0.681 in the test with Idelalisib + Foretinib (first compound 4 µM).

Regarding HCC-44, the relative viability with Pemetrexed + Lapatinib (first compound 0.002 µM) is 0.928; with Pemetrexed + Lapatinib (first compound 0.006325 µM), 1; with Pemetrexed + Lapatinib (first compound 0.02 µM), 1.03; with Pemetrexed + Lapatinib (first compound 0.06325 µM), 1.02; with Pemetrexed + Lapatinib (first compound 0.2 µM) it was 0.874; with Idelalisib + Decitabine (first compound 0.04 µM) it was 1.07. Further, the relative viability in the test with Idelalisib + Decitabine (first compound 0.1265 µM) is 0.927; with Idelalisib + Decitabine (first compound 0.4 µM) it was 0.978; with Idelalisib + Decitabine (first compound 1.265 µM), 0.98; with Idelalisib + Decitabine (first compound 4 µM), 0.91; in the test with Pemetrexed + Pictilisib (first compound 0.002 µM), 1.52; with Pemetrexed + Pictilisib (first compound 0.006325 µM), 0.61. Besides, the relative viability worked out at 0.654 with Pemetrexed + Pictilisib (first compound 0.02 µM), 0.537 in the test with Pemetrexed + Pictilisib (first compound 0.06325 µM) and 0.395 with Pemetrexed + Pictilisib (first compound 0.2 µM).

As to NCI-H1623, the relative viability with Idelalisib + Foretinib (first compound 0.04 µM) was 0.849; with Idelalisib + Foretinib (first compound 0.1265 µM) it was 0.8; with Idelalisib + Foretinib (first compound 0.4 µM) it was 0.754; in the test with Idelalisib + Foretinib (first compound 1.265 µM), 0.706; in the test with Idelalisib + Foretinib (first compound 4 µM), 0.846.

On to NCI-H1792, for which the relative viability with Pemetrexed + Lapatinib (first compound 0.002 µM) stood at 0.829; with Pemetrexed + Lapatinib (first compound 0.006325 µM) it was 0.895; with Pemetrexed + Lapatinib (first compound 0.02 µM), 0.861; with Pemetrexed + Lapatinib (first compound 0.06325 µM) it was 0.875; with Pemetrexed + Lapatinib (first compound 0.2 µM) it was 0.862; with Idelalisib + Decitabine (first compound 0.04 µM), 0.505. In addition, the relative viability in the test with Idelalisib + Decitabine (first compound 0.1265 µM) is 0.599; with Idelalisib + Decitabine (first compound 0.4 µM), 0.514; with Idelalisib + Decitabine (first compound 1.265 µM), 0.558; with Idelalisib + Decitabine (first compound 4 µM), 0.472; with Pemetrexed + Pictilisib (first compound 0.002 µM) it was 0.252; with Pemetrexed + Pictilisib (first compound 0.006325 µM), 0.298. Moreover, the relative viability with Pemetrexed + Pictilisib (first compound 0.02 µM) stood at 0.325; in the test with Pemetrexed + Pictilisib (first compound 0.06325 µM), 0.255; in the test with Pemetrexed + Pictilisib (first compound 0.2 µM) it was 0.252.

As to NCI-H522, the relative viability in the test with Idelalisib + Decitabine (first compound 0.04 µM) worked out at 0.665; in the test with Idelalisib + Decitabine (first compound 0.1265 µM), 0.67; with Idelalisib + Decitabine (first compound 0.4 µM) it was 0.645; with Idelalisib + Decitabine (first compound 1.265 µM), 0.631; with Idelalisib + Decitabine (first compound 4 µM), 0.698.

With NCI-H1703, the relative viability came to 1.02 with Pemetrexed + Lapatinib (first compound 0.002 µM); 0.865 with Pemetrexed + Lapatinib (first compound 0.006325 µM); 1.59 with Pemetrexed + Lapatinib (first compound 0.02 µM); 0.9 with Pemetrexed + Lapatinib (first compound 0.06325 µM); 0.976 with Pemetrexed + Lapatinib (first compound 0.2 µM); 0.248 in the test with Pemetrexed + Pictilisib (first compound 0.006325 µM). Besides, the relative viability with Pemetrexed + Pictilisib (first compound 0.02 µM) amounted to 0.29; in the test with Pemetrexed + Pictilisib (first compound 0.06325 µM) it was 0.287; with Pemetrexed + Pictilisib (first compound 0.2 µM), 0.264; with Idelalisib + Foretinib (first compound 0.04 µM), 0.344; in the test with Idelalisib + Foretinib (first compound 0.1265 µM), 0.356; with Idelalisib + Foretinib (first compound 0.4 µM) it was 0.311. Also, the results for the relative viability with Idelalisib + Foretinib (first compound 1.265 µM) and with Idelalisib + Foretinib (first compound 4 µM) were 0.399 and 0.303, respectively.

IA-LM: the relative viability in the test with Pemetrexed + Lapatinib (first compound 0.002 µM) is 0.719; with Pemetrexed + Lapatinib (first compound 0.006325 µM) it was 0.869; with Pemetrexed + Lapatinib (first compound 0.02 µM) it was 1.03; in the test with Pemetrexed + Lapatinib (first compound 0.06325 µM) it was 0.827; with Pemetrexed + Lapatinib (first compound 0.2 µM), 0.636; with Pemetrexed + Pictilisib (first compound 0.002 µM) it was 0.115. The relative viability came out at 0.323 in the test with Pemetrexed + Pictilisib (first compound 0.006325 µM); 0.343 in the test with Pemetrexed + Pictilisib (first compound 0.06325 µM); 0.339 in the test with Pemetrexed + Pictilisib (first compound 0.2 µM); 1.17 with Idelalisib + Foretinib (first compound 0.04 µM); 1.41 in the test with Idelalisib + Foretinib (first compound 0.1265 µM); 1.24 with Idelalisib + Foretinib (first compound 0.4 µM). Moreover, the relative viability is 1.31 with Idelalisib + Foretinib (first compound 1.265 µM) and 1.19 with Idelalisib + Foretinib (first compound 4 µM).
